Laboratory results from ChEMBL document CHEMBL1782003, “Development and SAR of functionally selective allosteric modulators of GABAA receptors” (Bioorg Med Chem, 2011).
In brackets after ≈: the same amount, converted by molar mass.

Assay: physchem
Conditions: DMSO

SMILES	solubility
CCCNC(=O)c1nnc2c(CC(C)C)cccc2c1N	4.6 µM (≈ 1.32 µg/mL)
CCCNC(=O)c1nnc2c(-c3cc(C)ccc3C)cccc2c1N	1.4 µM (≈ 0.468 µg/mL)
CCCNC(=O)c1nnc2c(-c3cccc(C)c3)cccc2c1N	8 µM (≈ 2.56 µg/mL)
CCCNC(=O)c1nnc2c(-c3ccccc3C)cccc2c1N	26.8 µM (≈ 8.59 µg/mL)
CCCNC(=O)c1nnc2c(-c3ccc(C)cc3C)cccc2c1N	0.8 µM (≈ 0.268 µg/mL)
CCCNC(=O)c1nnc2c(-c3cc(C)cc(C)c3)cccc2c1N	0.8 µM (≈ 0.268 µg/mL)
COc1ccc(OC)c(-c2cccc3c(N)c(C(=O)NC4CCC4)nnc23)c1	4.3 µM (≈ 1.63 µg/mL)
CCNC(=O)c1nnc2c(-c3cc(OC)ccc3OC)cccc2c1N	8.2 µM (≈ 2.89 µg/mL)
COc1ccc(OC)c(-c2cccc3c(N)c(C(=O)NCCC(F)(F)F)nnc23)c1	2.8 µM (≈ 1.18 µg/mL)
COc1ccc(OC)c(-c2cccc3c(N)c(C(=O)NCCCO)nnc23)c1	11 µM (≈ 4.21 µg/mL)
COc1ccc(OC)c(-c2cccc3c(N)c4c(nc23)CN(C2CC(C)C2)C4=O)c1 (stereo not given)	0.9 µM (≈ 0.363 µg/mL)
COc1ccc(OC)c(-c2cccc3c(N)c4c(nc23)CN(C2CCCC2)C4=O)c1	2.9 µM (≈ 1.17 µg/mL)
CCN1Cc2nc3c(-c4cc(OC)ccc4OC)cccc3c(N)c2C1=O	0.5 µM (≈ 0.182 µg/mL)
COc1ccc(OC)c(-c2cccc3c(N)c4c(nc23)CN(C2CCC2)C4=O)c1	2.3 µM (≈ 0.896 µg/mL)
COc1ccc(OC)c(-c2cccc3c(N)c4c(nc23)CN(C2CC2)C4=O)c1	4.9 µM (≈ 1.84 µg/mL)
CCCNC(=O)c1nnc2c(-c3cc(OC)ccc3OC)c(F)ccc2c1N	3.3 µM (≈ 1.27 µg/mL)
CCNC(=O)c1nnc2c(-c3cc(OC)ccc3OC)c(F)ccc2c1N	5 µM (≈ 1.85 µg/mL)
COc1ccc(OC)c(-c2c(F)ccc3c(N)c4c(nc23)CN(C2CCC2)C4=O)c1	1 µM (≈ 0.407 µg/mL)
COc1ccc(OC)c(-c2c(F)ccc3c(N)c4c(nc23)CN(C2CC2)C4=O)c1	1 µM (≈ 0.393 µg/mL)
CCN1Cc2nc3c(-c4cc(OC)ccc4OC)c(F)ccc3c(N)c2C1=O	0.3 µM (≈ 0.114 µg/mL)
CCCNC(=O)c1nnc2c(-c3cnc(OC)nc3OC)cccc2c1N	1.9 µM (≈ 0.7 µg/mL)
CCCNC(=O)c1nnc2c(-c3cnccc3OC)cccc2c1N	28.1 µM (≈ 9.48 µg/mL)
CCCNC(=O)c1nnc2c(-c3cc(C)ccc3OC)cccc2c1N	8.3 µM (≈ 2.91 µg/mL)
COc1cc(-c2c(F)ccc3c(N)c(C(=O)NC4CC4)nnc23)c(OC)nn1	6.2 µM (≈ 2.38 µg/mL)
CCCNC(=O)c1nnc2c(-c3cc(OC)ccc3OC)cccc2c1N [AZD6280]	3.9 µM (≈ 1.43 µg/mL)

Next, values leading:

solubility	SMILES
2 µM (≈ 0.811 µg/mL)	CCC(C)(C)N1Cc2nc3c(-c4cc(OC)ccc4OC)cccc3c(N)c2C1=O
3.4 µM (≈ 1.06 µg/mL)	CCCN1Cc2nc3c(CC(C)(C)C)cccc3c(N)c2C1=O
9.5 µM (≈ 2.91 µg/mL)	CCCNC(=O)c1nnc2c(-c3ccccc3)cccc2c1N
8.9 µM (≈ 3.24 µg/mL)	COc1ccc(OC)c(-c2cccc3c(N)c(C(=O)NC4CC4)nnc23)c1
1.8 µM (≈ 0.706 µg/mL)	COc1ccc(OC)c(-c2cccc3c(N)c(C(=O)NC4CC(C)C4)nnc23)c1 (stereo not given)
4.7 µM (≈ 1.72 µg/mL)	COc1ccc(OC)c(-c2cccc3c(N)c(C(=O)NC(C)C)nnc23)c1
2.6 µM (≈ 0.88 µg/mL)	CNC(=O)c1nnc2c(-c3cc(OC)ccc3OC)cccc2c1N
1.2 µM (≈ 0.457 µg/mL)	CCC(C)NC(=O)c1nnc2c(-c3cc(OC)ccc3OC)cccc2c1N (stereo not given)
0.8 µM (≈ 0.28 µg/mL)	COc1ccc(OC)c(-c2cccc3c(N)c4c(nc23)CN(C)C4=O)c1
8.8 µM (≈ 3.37 µg/mL)	COc1ccc(OC)c(-c2c(F)ccc3c(N)c(C(=O)NC4CC4)nnc23)c1
2.8 µM (≈ 1.11 µg/mL)	COc1ccc(OC)c(-c2c(F)ccc3c(N)c(C(=O)NC4CCC4)nnc23)c1
7.8 µM (≈ 3 µg/mL)	COc1ccc(OC)c(-c2c(F)ccc3c(N)c(C(=O)NC(C)C)nnc23)c1
2 µM (≈ 0.767 µg/mL)	COc1ccc(-c2c(F)ccc3c(N)c(C(=O)NC4CC4)nnc23)c(OC)n1
10.8 µM (≈ 3.77 µg/mL)	COc1ncc(C)cc1-c1cccc2c(N)c(C(=O)NC3CC3)nnc12
7.6 µM (≈ 2.69 µg/mL)	CCCNC(=O)c1nnc2c(-c3c(F)cccc3OC)cccc2c1N [AZD7325]
